One block for each molecule: values may come before it.
Legend:
HSA [1] = target: T1, HSA (Homo sapiens, UniProt P02768); assay: Displacement of NBD derivatives on HSA by natural fatty acids C6 to C16 (fluorescence); type: binding; design: key to displacement of NBD C8 (15) bound to HSA / displacement of NBD C10 (16) bound to HSA / displacement of NBD C12 (17) bound to HSA: + stands for displacement; − for no displacement; conditions: for relative binding affinity of the NBD dye for HSA: ranking among NBD C8, C10 and C12 from the competition experiments
T1 construct: purchased Sigma Aldrich A1887
T1 sequence (P02768 25-609): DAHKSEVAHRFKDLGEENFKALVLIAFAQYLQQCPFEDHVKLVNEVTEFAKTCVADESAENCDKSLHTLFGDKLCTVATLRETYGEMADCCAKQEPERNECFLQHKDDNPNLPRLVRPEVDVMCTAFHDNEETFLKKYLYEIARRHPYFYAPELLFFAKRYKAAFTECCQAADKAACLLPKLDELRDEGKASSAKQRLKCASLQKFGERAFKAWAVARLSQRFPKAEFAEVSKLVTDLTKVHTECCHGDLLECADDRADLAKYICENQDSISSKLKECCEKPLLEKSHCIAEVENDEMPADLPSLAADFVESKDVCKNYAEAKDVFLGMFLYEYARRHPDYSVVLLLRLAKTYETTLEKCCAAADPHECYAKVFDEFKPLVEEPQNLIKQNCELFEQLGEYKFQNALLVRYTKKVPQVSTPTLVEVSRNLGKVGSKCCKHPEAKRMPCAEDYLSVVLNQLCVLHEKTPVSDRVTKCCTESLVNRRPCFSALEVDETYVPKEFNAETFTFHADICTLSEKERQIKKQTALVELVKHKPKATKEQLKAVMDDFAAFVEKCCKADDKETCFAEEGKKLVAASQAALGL
Method: Dilution series for competition experiments with the fatty acids C6 to C16 were diluted with phosphate-buffered saline solution (DPBS buffer). Geometric dilution series of each fatty acid were prepared in 384 well microplates with a starting concentration of 2500 μM and a dilution factor of 0.33 and also 9 dilution steps. The final volume of each concentration was 80 μl. The plated-out fatty acids were stored in the deep freeze (−25° C.) until use.
For displacement experiments 2.50 ml of a 25 μM HSA solution were used per dye derivative. Due to the subsequent dilution steps the HSA concentration was doubled twice such that 2.50 ml of […] solution were prepared.
The dye concentrations were also doubled twice by the following dilution steps. 2.50 ml of each dye solution were needed. 2.10 ml of the respective dye solution were then mixed with 2.10 ml of the 100 μM HSA solution. The respective concentrations of the solutions halve here once. 50 μl of the mixture per well were introduced into a 96 well microplate.
The fatty acid microplates were brought to room temperature and 50 μl each of the dilution series were pipetted into the HSA-dye mixture. The concentrations of all solution constituents were thereby halved once again. In analogy to the experiments measuring the fluorescence of the fluorescence-labelled derivatives without HSA above, the solutions were pipetted from the 96 well microplate into a 384 well microplate. Absorption was not measured. The fluorescence measurement without a wavelength scan was carried out in analogy to the above-referenced experiment.
A concentration of 25 μM and a binding ratio of the NBD derivatives to HSA of 1:1 were employed for the displacement studies. For each dye derivative an NBD-HSA mixture with a concentration of 25 μM was prepared.

[2] = log D7.4 determination by RP-HPLC, similar to the water/octanol partition coefficient method; type: physicochemical; conditions: pH 7.4, RP-HPLC C18, range −1 to +6
Method: log D7.4 values were determined by a method similar to the partition coefficient method in a water/octanol mixture and were carried out on an RP-HPLC from Waters Alliance (2795) having a C18 column (2×20 mm) with a gradient of morpholinesulfonic acid buffer (pH 7.4) and acetonitrile. The range was between −1 ([…]) to +6 (lipophilic).

HSA [3] = target: T1, HSA; assay: Fluorescence of NBD and dansyl dyes with increasing HSA (FRET effect, emission maxima); type: binding; conditions: for change in fluorescence intensity with increasing HSA concentration: HSA 1.56 to 200 μM, pH 7.4
Method: Absorption and fluorescence of fluorescence-labelled derivatives and HSA were carried out in a Varioskan™ microplate reader (Thermo Electron Corporation). 96 well (Costar, half area, flat bottom) microplates were used for absorption measurements and 384 well (Greiner Bio One, small volume, black) microplates from Greiner Bio One were used for fluorescence measurements. All measurements were carried out at pH 7.4 and room temperature.
5.00 ml of a 400 μM solution were prepared from the HSA stock solution. From this solution a geometric dilution series with 7 dilution steps, a dilution factor of 0.5 and a final volume of each concentration of 2.5 ml were prepared.
Defined concentrations of the fluorescence-labelled compounds were selected from the preceding experiment without HSA above and double-concentrated solutions thereof were prepared to take into account the later 1:1 dilution. For each fluorescence-labelled compound (12-17; 19-25) 1.00 ml of these double-concentrations was prepared. 50 μl of the dye solutions were introduced into a 96 well microplate and 50 μl each of the HSA dilution series were added. By mixing the solutions the concentrations of dye derivatives and the HSA solution were halved. The measurements of the absorption and fluorescence were carried out in analogy to the above experimental procedure without HSA.
In analogy to the absorption measurement the effect of HSA on the fluorescence of the dyes (12-17; 19-25) was determined. The same concentrations of NBD and dansyl dyes and the same concentration range for HSA as already described above were used.

HSA [4] = target: T1, HSA; assay: Job plot of the fluorescence: stoichiometry of labelled fatty acids to HSA; type: binding; conditions: maximum in the curve or none
Method: The stoichiometry of NBD- and dansyl-labelled fatty acids bound to HSA was determined by Job plots, also called the “method of continuous variability” as different mole fractions of the respective binding partners are mixed with one another and then measured spectroscopically. Solutions of equimolar concentrations of HSA and dye were mixed such that the mole fractions of the substances were varied but the total molarity of the sample solution stayed constant. For short NBD derivatives C2 to C6 (12-14) no binding to HSA was confirmed, whereas binding ratios for long NBD derivatives C8 to C12 (15-17) to HSA were 1:1. For short dansyl derivatives C2 to C8 (19-22) binding ratios for HSA were 2:1, whereas the long dansyl derivatives C10 and C12 (23-24) bound to HSA in the ratio of 4:1. The finding that even dansyl C2 (19) was bound to HSA led to the question as to what extent the dansyl label itself is recognized by HSA. Because even dansyl methylamide (25) bound to HSA, even though it lacks a carboxyl group, it seems that the dye label could also bind to HSA.
For the Job plot the dye and HSA solutions were employed in equimolar amounts. 10.00 ml of 100 μM HSA solution and in each case 2.00 ml of a 100 μM dye solution (12-17; 19-25) were prepared from the above stock solutions. For the Job plot method the dye solutions were mixed with the HSA solution in different ratios as described below in Table 8. […] According to the same dilution scheme the dye solutions were also mixed with DPBS buffer for measuring the blank values of the fluorescence-labelled derivatives (see K. C. Ingham, Analytical Biochemistry 68 (1975) 660-663). […] Absorption was not measured. A fluorescence measurement without a wavelength scan was also carried out in analogy to the above experiment without HSA.
For NBD derivatives (12-17) and HSA 100 μM solutions were used. […] In total 11 solutions per dye derivative were prepared for fluorescence measurement by mixing the two binding partners. […] The fluorescence intensities were plotted against the mole fractions of the binding partners. […]

[5] = NBD-HSA mixture 25 μM, 1:1, competitor natural fatty acid
[6] = NBD compound 25 μM, λex = 480 nm
[7] = NBD derivatives 25 μM, 480-550 nm
[8] = dansyl compound 100 μM, λex = 330 nm

displacement of NBD C8 (15) bound to HSA (HSA [1]; [5]): +
displacement of NBD C8 (15) from HSA (HSA [1]; [5]): displaced
displacement of NBD C10 (16) bound to HSA (HSA [1]; [5]): unclear
displacement of NBD C12 (17) bound to HSA (HSA [1]; [5]): −
displacement of NBD C12 (17) from HSA (HSA [1]; [5]): no longer capable of displacing
SMILES: CCCCCCCCCC(=O)O [FA C10, capric acid]

displacement of NBD C8 (15) bound to HSA (HSA [1]; [5]): +
displacement of NBD C8 (15) from HSA (HSA [1]; [5]): displaced
displacement of NBD C10 (16) bound to HSA (HSA [1]; [5]): +
displacement of NBD C12 (17) bound to HSA (HSA [1]; [5]): +
SMILES: CCCCCCCCCCCCCC(=O)O [FA C14, myristic acid]

displacement of NBD C8 (15) bound to HSA (HSA [1]; [5]): +
displacement of NBD C8 (15) from HSA (HSA [1]; [5]): displaced
displacement of NBD C10 (16) bound to HSA (HSA [1]; [5]): +
displacement of NBD C12 (17) bound to HSA (HSA [1]; [5]): +
displacement of NBD C12 (17) from HSA (HSA [1]; [5]): displaced
SMILES: CCCCCCCCCCCC(=O)O [FA C12, lauric acid]

Second part, the molecule before the results:

SMILES: O=C(O)CCCCCNc1ccc([N+](=O)[O-])c2nonc12 [NBD C6 (14), 6-(7-Nitrobenzo[1,2,5]oxadiazol-4-ylamino)hexanoic acid]
chromatographic logD [2]: 0.53
Δλ, shift of emission maximum λem without HSA vs with HSA (HSA [3]; [6]): 0 nm
change in fluorescence intensity with increasing HSA concentration (HSA [3]; [7]): no changes in fluorescence intensity

SMILES: O=C(O)CCCNc1ccc([N+](=O)[O-])c2nonc12 [NBD C4 (13), 4-(7-Nitrobenzo[1,2,5]oxadiazol-4-ylamino)butanoic acid]
log D7.4 [2]: −0.46
Δλ, shift of emission maximum λem without HSA vs with HSA (HSA [3]; [6]): 2 nm
change in fluorescence intensity with increasing HSA concentration (HSA [3]; [7]): no changes in fluorescence intensity

SMILES: CN(C)c1cccc2c(S(=O)(=O)NCCCCCCCC(=O)O)cccc12 [dansyl C8 (22), 8-(5-Dimethylaminonaphthalene-1-sulfonylamino)octanoic acid]
chromatographic logD [2]: 2.1
Δλ, shift of emission maximum λem without HSA vs with HSA (HSA [3]; [8]): 74 nm

SMILES: CN(C)c1cccc2c(S(=O)(=O)NCCCCCCCCCCCC(=O)O)cccc12 [dansyl C12 (24), 12-(5-Dimethylaminonaphthalene-1-sulfonylamino)dodecanoic acid]
chromatographic logD [2]: 3.49
log D7.4 [2]: 3.49
Δλ, shift of emission maximum λem without HSA vs with HSA (HSA [3]; [8]): 66 nm

SMILES: CN(C)c1cccc2c(S(=O)(=O)NCCCCCCCCCC(=O)O)cccc12 [dansyl C10 (23), 10-(5-Dimethylaminonaphthalene-1-sulfonylamino)decanoic acid]
chromatographic logD [2]: 2.74
Δλ, shift of emission maximum λem without HSA vs with HSA (HSA [3]; [8]): 68 nm

SMILES: O=C(O)CCCCCCCCCNc1ccc([N+](=O)[O-])c2nonc12 [NBD C10 (16), 10-(7-Nitrobenzo[1,2,5]oxadiazol-4-ylamino)decanoic acid]
chromatographic logD [2]: 2.03
Δλ, shift of emission maximum λem without HSA vs with HSA (HSA [3]; [6]): 16 nm
change in fluorescence intensity with increasing HSA concentration (HSA [3]; [7]): increase in fluorescence intensity
relative binding affinity of the NBD dye for HSA (HSA [1]): minimally smaller
relative binding affinity of the NBD dye for HSA (HSA [1]; listed as NBD C10): binding strength which lies between these two

SMILES: O=C(O)CCCCCCCNc1ccc([N+](=O)[O-])c2nonc12 [NBD C8 (15), 8-(7-Nitrobenzo[1,2,5]oxadiazol-4-ylamino)octanoic acid]
chromatographic logD [2]: 1.29
Δλ, shift of emission maximum λem without HSA vs with HSA (HSA [3]; [6]): 10 nm
change in fluorescence intensity with increasing HSA concentration (HSA [3]; [7]): greatest increase in fluorescence intensity
relative binding affinity of the NBD dye for HSA (HSA [1]): lowest affinity

SMILES: CN(C)c1cccc2c(S(=O)(=O)NCCCC(=O)O)cccc12 [dansyl C4 (20), 4-(5-Dimethylaminonaphthalene-1-sulfonylamino)butanoic acid]
chromatographic logD [2]: 1.21
Δλ, shift of emission maximum λem without HSA vs with HSA (HSA [3]; [8]): 88 nm

SMILES: CNS(=O)(=O)c1cccc2c(N(C)C)cccc12 [DMA (25), 5-Dimethylaminonaphthalene-1-sulfonic acid methylamide]
chromatographic logD [2]: 2.76
Δλ, shift of emission maximum λem without HSA vs with HSA (HSA [3]; [8]): 80 nm
change in fluorescence intensity with increasing HSA concentration (HSA [3]; dansyl derivatives 100 μM, 330-560 nm): smallest fluorescence increase
binding to HSA (qualitative) (HSA [4]): binds to HSA
binding to HSA (qualitative) (HSA [4]; listed as dansyl methylamide (25)): bound to HSA

SMILES: CN(C)c1cccc2c(S(=O)(=O)NCCCCCC(=O)O)cccc12 [dansyl C6 (21), 6-(5-Dimethylaminonaphthalene-1-sulfonylamino)hexanoic acid]
chromatographic logD [2]: 1.56
Δλ, shift of emission maximum λem without HSA vs with HSA (HSA [3]; [8]): 82 nm

SMILES: CN(C)c1cccc2c(S(=O)(=O)NCC(=O)O)cccc12 [dansyl C2 (19), (5-Dimethylaminonaphthalene-1-sulfonylamino)ethanoic acid]
chromatographic logD [2]: 1.02
Δλ, shift of emission maximum λem without HSA vs with HSA (HSA [3]; [8]): 94 nm
binding to HSA (qualitative) (HSA [4]): bound to HSA

SMILES: O=C(O)CNc1ccc([N+](=O)[O-])c2nonc12 [NBD C2 (12), 2-(7-nitrobenzo[1,2,5]oxadiazol-4-ylamino)ethanoic acid]
log D7.4 [2]: < −1
Δλ, shift of emission maximum λem without HSA vs with HSA (HSA [3]; [6]): 0 nm
change in fluorescence intensity with increasing HSA concentration (HSA [3]; [7]): no changes in fluorescence intensity

SMILES: CCCCCC(=O)O [FA C6, caproic acid]
displacement of NBD C8 (15) bound to HSA (HSA [1]; [5]): −
displacement of NBD C8 (15) from HSA (HSA [1]; [5]): did not displace
displacement of NBD C10 (16) bound to HSA (HSA [1]; [5]): −
displacement of NBD C10 (16) from HSA (HSA [1]; [5]): not displaced
displacement of NBD C12 (17) bound to HSA (HSA [1]; [5]): −

— patent publication US20150285812A1, “Fluorescence-Labelled Fatty Acids and Uses Thereof” (SANOFI, priority 2012, published 2015)
